Measured values from publication PMC7806714, “Statins for the prevention of proliferative vitreoretinopathy: cellular responses in cultured cells and clinical statin concentrations in the vitreous” (Scientific Reports, 2021).
Where two headings read alike, the source gives them in different places.

What was measured:
[1] = plasma, cited from earlier work
MTT cell viability assay = type: cell-based, human; conditions: human, ARPE-19 cells; dissolved in DMSO; read-out: Cell viability (MTT) compared to DMSO control
Procedure: (§1) Cell viability was assessed by determining the amount of LDH enzyme from culture media using a commercial kit (Promega Corporation, USA) according to the manufacturer’s protocol. This assay provides information about the integrity of the plasma membranes of the cells (high LDH levels meaning cell damage). In addition, the cell viability was examined with MTT assay, as described previously. In viable cells, the mitochondrial succinate dehydrogenase enzyme can metabolize the MTT dye into formazan that absorbs light at the 550 nm wavelength.

ARPE-19 cells = assay: MTT cell viability assay; type: cell-based, human
Procedure: as §1

[2] = Calculated average steady-state plasma (Eq. 1) and expected vitreal concentrations (Eq. 3); set-up: species or system human; conditions: for Calc. Cv: expected vitreal, Eq. 3; for Css,av: plasma, Eq. 1
Procedure: The concentrations of statins and their metabolites in the vitreous were analysed (see above) and expressed as ng/mL concentrations. These concentrations were compared to published statin concentrations in plasma. […] Maximum concentrations in plasma and the area under the concentration vs time curve values were collected. The expected average statin concentrations in plasma during multiple dose treatment were calculated for the doses that the patients received in our study (Eq. 1):1 Css,av=AUCsingledose/τ where τ is the time interval between doses. The drug concentrations in plasma (C, Cmax, Css, av) include both unbound (Cu) and protein-bound drug. The values for protein binding were obtained from the summary of drug product characteristics for each statin. The free fraction of statin in plasma was calculated based on Eq. (2):2 fu=CuC
The expected drug concentrations in the patients’ vitreous samples were calculated according to Eq. (3)3 Cv=fu×Css,av
Equation (3) assumes that the vitreal drug concentrations equilibrate with the unbound drug concentrations in plasma, because only free drug is expected to cross the blood-ocular barriers.

MCP-1 = assay: ELISA of LPS-induced MCP-1 release from ARPE-19 cells
IL-6 = assay: ELISA of LPS-induced IL-6 release from ARPE-19 cells
IL-8 = assay: ELISA of LPS-induced IL-8 release from ARPE-19 cells; conditions: 5 µM, 24 h prior to LPS
[3] = UPLC-MS/MS statin and metabolite concentrations in vitreous of vitrectomy patients on oral statins; type: in vivo, human
Procedure: The study was conducted according to the tenets of the Declaration of Helsinki, and was approved by the Institutional Review Board and Ethical committee of Helsinki University Central Hospital. Twenty patients were enrolled; fifteen with per oral statin treatment and five controls. Signed informed consent was obtained from each participant prior to the vitreous sampling. Confidentiality of the patient records was maintained when the clinical data were entered into a computer-based standardized data entry for analysis. Sixteen patients were being operated due to PDR; of these, five patients had also Tractional Retinal Detachment (TRD); two patients were operated due to RRD, one due to age-related epiretinal fibrosis (pucker), and one due to a macular hole (Supplementary Table S2). […] All vitrectomies were performed by the recruiting vitreoretinal surgeon (SL). […] The samples were collected by manual aspiration into a syringe via the vitrectomy with the cutting function activated. Sample aliquots were transferred into sterile 1.5 mL microcentrifuge tubes (Freemont, CA, USA) and immediately frozen and stored at − 70 °C until laboratory analysis. […] All reference compounds and internal standards were purchased from Toronto Research Chemicals (Toronto, Canada). Samples (100 µl) were divided into two aliquots and kept at − 80 °C prior to analysis. […] Homogenizer blocks were pre-cooled by placing them at − 20 °C. […] Supernatants (120 µl) were pipetted into analytical vials and the concentrations of the statins were measured with Ultra-high Pressure Liquid Chromatography—tandem Mass Spectrometry (UPLC-MS/MS) technique. The same pre-treatment protocol was used to prepare calibration curves and quality control samples but homogenized and filtered porcine vitreous were used as a matrix instead of human vitreous. A minimum of six calibration curve concentrations was used for quantitation of the compounds. Two parallel calibration curve sets included all eleven analytes and four deuterated internal standards. Three quality control samples in three parallel sets were used to validate the method. The linear range varied from approximately 0.004 to 10 ng/mL depending on the analyte. Limit of quantitation was set to the smallest calibration curve point of each drug. Each sample was analysed twice and the average of these values was designated as the concentration of the sample. […] For rosuvastatin, two metabolites were analysed: rosuvastatin lactone and N-desmethyl rosuvastatin lactone. Rosuvastatin D6 was used as an internal standard. The parent drug, its metabolites and internal standard were analysed from the same sample in each case. Liquid chromatography separation was carried out using a Waters Acquity UPLC instrument (Waters, MA, USA) coupled with Waters HSS T3 C18 (2.1 × 100 mm, 1.8 µm) column at 40 °C. The mobile phase consisted of 0.1% formic acid in ultrapure water (A) and 100% of LC–MS grade acetonitrile (B). […] The flow rate was set to 0.3 mL/min and injection volume 1.5 µl. After every three samples, a solvent blank was run to control for any carry over. Mass spectrometry measurements were carried out using a Waters Xevo Triple Quadruple mass spectrometer (TQ-S) equipped with an ESI source. […] The source parameters were as follows: Capillary voltage 2.8 kV, source temperature 150 °C and desolvation temperature 500 °C. Nitrogen (Aga, Helsinki, Finland) was used as a desolvation gas (800 l/h), a cone gas (150 l/h) and a nebulizer gas (7 bar). Argon (Aga, Helsinki, Finland) was used as a collision gas (0.15 mL/min). The Multiple Reaction Monitoring (MRM) mode was used for quantification. Precursor and fragment ions, as well as other optimized parameters are listed in Supplementary Table S3.

[4] = 10 mg/d single oral dose, n=12, China, ref [30]
[5] = 10 mg/d single oral dose, n=18, Germany, ref [31]
[6] = 20 mg/d single oral dose, n=6, UK, ref [32]
[7] = 20 mg/d single oral dose, n=12, Chinese, ref [30]
[8] = 48 h exposure prior to LPS, 1.5, 5, 10 µM tested
[9] = oral 20 mg/d, patients' vitreous

CC(C)c1nc(N(C)S(C)(=O)=O)nc(-c2ccc(F)cc2)c1/C=C/[C@@H](O)C[C@@H](O)CC(=O)O [Rosuvastatin]
AUC0−∞ [1, 4]: 103 ng·h/mL | Cmax [1, 4]: 10.8 ng/mL | AUC0−∞ [1, 5]: 48.4 ng·h/mL | Cmax [1, 5]: 4.5 ng/mL | AUC0−∞ [1, 6]: 63.1 ng·h/mL | Cmax [1, 6]: 6.1 ng/mL | AUC0−∞ [1, 7]: 177 ng·h/mL | Cmax [1, 7]: 19.2 ng/mL | viability (MTT cell viability assay): 88% | Cellular toxicity in MTT test (ARPE-19 cells; dissolved in DMSO, 24 h or 48 h, with or without LPS): well tolerated | Cell viability in MTT assay (ARPE-19 cells; dissolved in water): did not compromise cell viability | Calc. Cv ([2]; 10 mg/d, China study [30]): 0.513 ng/mL | Calc. Cv ([2]; 10 mg/d, Germany study [31]): 0.242 ng/mL | Calc. Cv ([2]; 20 mg/d, Chinese study [30]): 0.883 ng/mL | Calc. Cv ([2]; 20 mg/d, UK study [32]): 0.314 ng/mL | Css,av ([2]; 10 mg/d, China study [30]): 4.27 ng/mL | Css,av ([2]; 10 mg/d, Germany study [31]): 2.02 ng/mL | Css,av ([2]; 20 mg/d, Chinese study [30]): 7.36 ng/mL | Css,av ([2]; 20 mg/d, UK study [32]): 2.62 ng/mL | LPS-induced release of MCP-1 (MCP-1; 5 µM, 24 h prior to LPS): decreased | LPS-induced release of MCP-1 (MCP-1; [8]): decreasing trends | LPS-induced release of IL-6 (IL-6; 5 µM, 24 h prior to LPS (rosuvastatin: DMSO and water)): reduced | LPS-induced release of IL-6 (IL-6; 10 µM, 24 h prior to LPS (rosuvastatin: DMSO and water)): reduced | LPS-induced release of IL-6 (IL-6; [8]): decreasing trends | LPS-induced release of IL-8 (IL-8): reduced | vitreous concentration range ([3]; 10–20 mg daily, oral): 52 to 316 pg/mL | Measured Cv Average ([3]; oral 10 mg/d, patients' vitreous): 0.055 ng/mL | Measured Cv Range (lower) [3, 9]: 0.052 ng/mL | Measured Cv Range (upper) [3, 9]: 0.316 ng/mL | Concentration in vitreous sample ([3]; patient 359, Pucker, diabetes, oral rosuvastatin 20 mg): 0.056 ng/mL | Concentration in vitreous sample ([3]; patient 371, PDR, dose 0* (control without reported statin treatment)): 0.241 ng/mL | Concentration in vitreous sample ([3]; patient 383, PDR, oral rosuvastatin 10 mg): 0.055 ng/mL | Concentration in vitreous sample ([3]; patient 397, PDR, oral rosuvastatin 20 mg): 0.168 ng/mL | Concentration in vitreous sample ([3]; patient 412, PDR, oral rosuvastatin 20 mg): 0.316 ng/mL | Concentration in vitreous sample ([3]; patient 428, MH, diabetes, not DR, oral rosuvastatin 20 mg): 0.052 ng/mL
